Key:
tumor cells [1] = settings: reported for other CD38 antibodies; cited from earlier work
[2] = test system: NCI-H929 multiple myeloma model; assay: NCI-H929 subcutaneous multiple myeloma xenograft mouse model; type: in vivo, mice; settings: lenalidomide 1 mg/kg/day PO QD × 21 d; for Activity: hu38SB19 0.5 mg/kg/injection IV 2x/wk × 2 wk
Text: (§1) The subcutaneous multiple myeloma (MM) xenograft mouse models were established using H929 and RPMI8226 cell lines. Specifically, 5-6 week old female Balb/c Scid mice were obtained from Jackson Lab. Mice were housed for 7-10 days prior to implantation. Mice were housed in a dedicated room in the UCSF Mt Zion Animal Barrier Facility. NCI-H929 and RPMI-8226 cells were obtained from the German Collection of Microorganisms and Cell Cultures, DSMZ, (Deutsche Sammlung von Mikroorganismen and Zellkulturen), and grown in sterile suspension culture in T225 flasks as follows: NCI-H929:RPMI1640+20% FBS+4 mM L-glutamine+1 mM sodium pyruvate+50 μM mercaptoethanol. RPMI-8226:RPMI1640+10% FBS+4 mM L-glutamine.
(§2) At the time of implantation, mice were shaved on the right flank and shoulder region and anesthetized with ip avertin. MM cells suspended in serum free RPMI 1640 media diluted 1:1 with Matrigel (BD) at a concentration of 1×10^8 cells per ml were injected sc into the right flank in 100 μL volume (1×10^7 cells) using a 1 ml syringe and 25 g needle. Mice were monitored twice weekly for the appearance of tumors and once tumors were visible, measurements were collected twice weekly for body weight and tumor volume. Electronic balance and calipers were used and data was collected directly into a study management program (Study Director). When the mean tumor volume reached about 150-200 mm^3, the mice were distributed into treatment groups of 8-10 mice per groups and dosing was begun.
(§3) Data were collected using electronic balance and calipers using a study management application called StudyLog (Study Director).
(§4) Antitumor activity was determined according to NCI standards based on the ratio of the median tumor volume change of the treated/median tumor volume change of the control×100 (% ΔT/ΔC). Low numerical values for ΔT/ΔC describe stronger anti-tumor activity. Anti-tumor activity is defined as ΔT/ΔC≤40% at minimum. ΔT/ΔC<10% is considered high anti-tumor activity.

RPMI-8226 tumors = assay: RPMI-8226 hind-flank xenograft model (Example 3, FIGS. 13-14); type: in vivo, mice; settings: RPMI-8226 xenograft; hu38SB19 twice weekly × 2 wk IV; lenalidomide qdx7×3 wk PO
Protocol: Lenolidomide (TC27682) was obtained from AK Scientific Inc. (Mountain View, Calif.) and prepared as a suspension in 1% (w/v) carboxymethyl cellulose (Sigma). Preparation was made using a mortar and pestle to generate a slurry suspension in the vehicle, diluted to the appropriate concentration, and used for dosing by oral gavage. Lenalidomide was administered qdx7×3 wk PO.
Zion Animal Barrier Facility.
RPMI-8226 were cultured in RPMI1640+10% FBS+4 mM L-glutamine.

[3] = test system: RPMI-8226 multiple myeloma model; assay: RPMI-8226 subcutaneous multiple myeloma xenograft mouse model; settings: RPMI-8226 xenograft, hu38SB19 15 mg/kg/injection IV 2x/wk × 2 wk, lenalidomide 15 mg/kg/day PO QD × 21 d
Text: as §1, §2, §3, §4

tumor cells [4] = assay: Apoptosis induction on tumor cells (preclinical studies); type: cell-based; settings: without cross-linking
tumor cells [5] = assay: ADCC on tumor cells; type: cell-based

| Compound | Apoptosis induction (tumor cells [1]) | % ΔT/ΔC (D69) ([2]; D69, hu38SB19 0.5 mg/kg/injection IV 2x/wk × 2 wk) | Activity [2] | Activity ([2]; listed as lenalidomide) | Tumor growth inhibition (RPMI-8226 tumors) | % ΔT/ΔC (D69) ([3]; D69) | Activity [3] | Activity ([3]; listed as lenalidomide) | Pro-apoptotic activity on tumor cells (tumor cells [4]) | ADCC activity on tumor cells (tumor cells [5]) |
| --- | --- | --- | --- | --- | --- | --- | --- | --- | --- | --- |
| Daratumumab: CD38 antibody reported to induce apoptosis only after cross-linking | able to induce apoptosis only after cross-linking with a secondary antibody | – | – | – | – | – | – | – | – | – |
| Nc1cccc2c1CN(C1CCC(=O)NC1=O)C2=O (racemic) [Lenalidomide, (RS)-3-(4-amino-1-oxo-3H-isoindol-2-yl)piperidine-2,6-dione] | – | 20% | Active | active | not robustly sensitive to single-agent therapy | 61% | Inactive | inactive | – | – |
| hu38SB19: humanized anti-CD38 antibody; VH SEQ ID NO: 66, VL SEQ ID NO: 62 or 64 | – | – | Active | – | dose-dependent inhibition of tumor growth | – | Inactive | – | potent direct pro-apoptotic activity | potent ADCC |

Reference: patent US10342869B2, “Compositions comprising anti-CD38 antibodies and lenalidomide” (SANOFI, priority 2012, dated 2019)
